Patent EP0790996B1, “PYRIDAZINOQUINOLINE COMPOUNDS” (AstraZeneca AB, priority 1994, dated 1996)
Read-outs that look alike come from different tables or passages of the source.

How the values were obtained:
[1] = molecular target: T1, glycine receptor of the NMDA receptor complex (Rattus norvegicus, UniProt P35439); test: [3H]-glycine binding assay (Test A); set-up: species or system Sprague-Dawley rats; details: 20 nanomolar [3H]-glycine, rat synaptic membranes, pH 7.1, 30 minutes at 4 °C
T1 construct: Freshly dissected cortices and hippocampi are homogenized in 0.32 M sucrose; from tissue; host or cells: rat cerebral cortex and hippocampus synaptic membranes
Description: In the [^3H]-glycine binding assay, neuronal synaptic membranes are prepared from adult (about 250 g) male Sprague-Dawley rats. Freshly dissected cortices and hippocampi are homogenized in 0.32 M sucrose (110 mg/mL). Synaptosomes are isolated by centrifugation (1000 xg, 10 min), the supernatant is pelleted (20,000 xg, 20 min) and resuspended in double-distilled water. The suspension was centrifuged for 20 minutes at 8,000 xg. The resulting […] and buffy coat are washed twice (48,000 xg, 10 mins, resuspension in double-deionized water). The final pellet is quickly frozen (dry ice/ethanol bath) under double-deionized water and stored at -70 °C.
On the day of the experiment, thawed synaptic membranes are homogenized with a Brinkmann Polytron (tm, Brinkmann Instruments, Westbury, N.Y.) tissue homogenizer in 50 millimolar tris(hydroxymethyl)aminomethane citrate, pH 7.1. The membranes are incubated with 0.04% Sufact-AMPS X100 (tm, Pierce, Rockford, IL) in buffer for 20 minutes at 37 °C and washed six times by centrifugation (48,000 xg, 10 min) and resuspended in buffer. The final pellet is homogenized at 200 mg wet weight/mL of the buffer for the binding assay.
For [^3H]-glycine binding at the N-methyl-D-aspartate receptor, 20 nanomolar [^3H]-glycine (40-60 Ci/mmol, New England Nuclear, Boston, MA) is incubated with the membranes suspended in 50 millimolar tris (hydroxymethyl)aminomethane citrate, pH 7.1 for 30 minutes at 4 °C. Glycine, 1 millimolar, is used to define the nonspecific binding. Bound [^3H]-glycine is isolated from free using a Brandel (Biomedical Research and Development Laboratories, Gaithersburg, MD) cell harvester for vacuum filtration over glass fiber filters (Whatman GF/B from Brandel, Gaithersburg, MD) presoaked in 0.025% polyethylenimine. The samples retained on the glass fiber filters are rinsed 3 times with a total of 2.5 mL ice cold buffer. Radioactivity is estimated by liquid scintillation counting. IC50 values are obtained from a least-squares regression of a logit-log transformation of the data. […]

[2] = tested on: NMDA-induced excitatory response of red nucleus cells; test: Red nucleus test (Test B); type: in vivo, Rats; details: Rattus norvegicus
Description: The purpose of this test is to determine the effects of intravenously administered glycine antagonists on the NMDA-induced excitatory response of red nucleus cells.
The procedure for the red nucleus test is as follows. Rats are anesthetized with chloral hydrate (400 mg/kg ip) and the femoral vein is catheterized for iv drug administration. Five-barrel micropipettes are stereotaxically positioned in the red nucleus. Typically, three to four of the five barrels are filled as follows: the recording barrel with 2M potassium citrate, the current balancing barrel with 4M NaCl, the drug barrel with 25mM NMDA, and another drug barrel with 2.5mM quisqualic acid (QA is only used in selectivity studies). NMDA is iontophoretically applied with an ejection current that is adjusted depending on the sensitivity of each individual red nucleus cell. The NMDA is cycled on and off (usually 30 - 60 sec. on and 60 - 120 sec. off) and the firing rate of the cell during each period is recorded. Once the baseline firing rate of the cell has been established, the test drug is administered iv. The effect of the drug on the NMDA-induced excitatory response of the red nucleus cell can be both qualitatively and quantitatively evaluated from the recordings and the raw data accumulated.

[3] = tested on: Male SHR rats; test: Rat Middle Cerebral Artery test (Test C), permanent MCA occlusion; type: in vivo; details: 24 hours after MCA/common carotid artery occlusion
Description: Male SHR rats weighing 280-320 g are used for these studies. The method used for permanent middle cerebral artery (MCA) occlusion is as described by Brint et al (1988). […] Following occlusions, drugs are administered intravenously via jugular catheter. Twenty-four hours after MCA/common carotid artery occlusion, the animals are sacrificed and their brains quickly removed. Coronal sections of 1 mm thickness are cut using a vibratome and stained with 2,3,5, triphenyl, 2H-tetrazolium chloride (TTC) dye. Following staining, necrotic tissue is readily distinguished from the intact brain and the area of infarcted cortex can be traced on an image analyzer. The infarct volume for each section is quantified with an image analyzer, and the total infarct volume is calculated with a program that summed all interval volume. See S. Brint et al. J. Cerebral Blood Flow 8:474-485 (1988). The statistical analysis of the difference between the volume of ischemic damage in the vehicle control and drug-treated animals is analyzed by student's-t-test. […] For example, the compound of example 145 at an I.V. dose of 10 mgs/kg/hr caused an infarct % volume change of -42% while a 5.0 mg/kg/hr I.V. dosage caused a -8% reduction.

For `O=c1c2c(c(O)nn1-c1ccccc1)Nc1cc(Cl)ccc1C2` [Example 147, 7-chloro-4-hydroxy-2-phenyl-5,10-dihydro-2H-pyridazino [4,5-b]quinolin-1-one], the IC50 [1] was 17 nM.

Molecule `COc1ccc(-n2nc(O)c3c(c2=O)Cc2ccc(Cl)cc2N3)cc1` [Example 148, 7-chloro-4-hydoxy-2-(4'-methoxyphenyl)-5,10-dihydro-2H-pyridazino[4,5-b]quinoline-1-one] has an IC50 [1] of 440 nM.

With `NC1CCN(O)C1=O` (racemic) [HA-966] the ED50 ([2]; reference agents, intravenous, anesthetized rats, read-out: ID50 (the source's name)) was 7.9 mg/kg.

In the case of `Cc1ccc(-n2nc(O)c3c(c2=O)Cc2ccc(Cl)cc2N3)cc1` [Example 145, 7-Chloro-4-hydroxy-5,10-dihydro-2-(4'-methylphenyl)pyridazino[4,5-b]-quinoline-1-one], the IC50 [1] is reported as 45 nM, the ED50 ([2]; as the meglumine salt (N=5), administered iv, read-out: ID50 (the source's name)) is reported as 6.54 mg/kg and the “infarct % volume change” value ([3]; 5.0 mg/kg/hr I.V. dosage) is reported as -8%. The “infarct % volume change” value ([3]; I.V. dose of 10 mgs/kg/hr) was -42%.

Work on `C/C(=C\C(N)C(=O)O)CP(=O)(O)O` (centres unmarked) [CGP 37849] yielded an ED50 ([2]; iv, read-out: ID50) of 1.7 mg/kg.
